# Data as given in patent US20260070945A1, “MACROCYCLIC IMMUNOMODULATORS” (Bristol-Myers Squibb Company, priority 2022, published 2026).
# *1 amine or outer side, *2 acyl side, *3 side chain or, on linkers, in order; H or OH if unused. Where a SMILES comes first, the peptide text is derived from it. Bridges are numbered along the chain shown (N, C = ends). [ ]: non-standard residue; d: D form. The star is where a group is joined. ξ: configuration not given here. Phe(3-CF3) = N[C@@H](Cc1cccc(C(F)(F)F)c1)C(=O)O; Phe(4-COOH) = N[C@@H](Cc1ccc(C(=O)O)cc1)C(=O)O; Bip = N[C@@H](Cc1ccc(-c2ccccc2)cc1)C(=O)O; Phe(3-Me) = Cc1cccc(C[C@H](N)C(=O)O)c1; NMeAEEA = CN(CCOCCOCC(=O)[*:2])[*:1]; Val(3-OH) = CC(C)(O)[C@H](N)C(=O)O; aIle = CC[C@@H](C)[C@H](N)C(=O)O; hhGln = NC(=O)CCCC[C@H](N)C(=O)O; 4Pal = N[C@@H](Cc1ccncc1)C(=O)O; Cha = N[C@@H](CC1CCCCC1)C(=O)O; Cit = NC(=O)NCCC[C@H](N)C(=O)O; NMeN = CN[C@@H](CC(N)=O)C(=O)O; Thr(3ξ) = CC(O)[C@H](N)C(=O)O; 12Ado = NCCCCCCCCCCCC(=O)O; dOrn = NCCC[C@@H](N)C(=O)O; Carboxymethyl = O=C(O)C*; NMeA = CN[C@@H](C)C(=O)O; Orn = NCCC[C@H](N)C(=O)O; Aun = NCCCCCCCCCCC(=O)O; Dab = NCC[C@H](N)C(=O)O; AEEA = NCCOCCOCC(=O)O; Sar = CNCC(=O)O
# Biological target: T1, PD-1/PD-L1 interaction (PE-labeled human PD-L1-Ig binding to Jurkat cell line over-expressing human PD-1) (Homo sapiens, UniProt Q15116)
# T1 construct: expressed in transfected cells; host or cells: Jurkat
# Test: Jurkat-PD-1 Cell Binding High-Content Screening Assay (CBA)
# Conditions: Jurkat-hPD-1 cells, PE-labeled PD-L1-Ig 20 nM final; read-out: Jurkat HPD1 PDL1 IC50
# How it was run: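 Cells 8×10^3/well, DMEM + 10% FCS; cpd 2 h, 37 °C; PE–PD-L1-Ig 20 nM final, 1 h; PFA fix + Hoechst 33342, 3× dPBS wash; high-content imager.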
# T1 sequence (Q15116 25-288): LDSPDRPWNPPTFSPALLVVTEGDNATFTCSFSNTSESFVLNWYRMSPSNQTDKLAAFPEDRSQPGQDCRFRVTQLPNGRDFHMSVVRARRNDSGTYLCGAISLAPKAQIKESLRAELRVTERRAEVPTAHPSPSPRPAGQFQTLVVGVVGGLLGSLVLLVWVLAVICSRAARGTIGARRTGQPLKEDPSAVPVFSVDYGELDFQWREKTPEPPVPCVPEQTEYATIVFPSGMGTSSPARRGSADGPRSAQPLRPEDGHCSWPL
row,SMILES,IC50 [nM]
1,Cc1cccc(C[C@@H]2NC(=O)[C@H](CC(=O)O)NC(=O)[C@H](Cc3ccc(OCC(=O)O)cc3)NC(=O)[C@H](C(C)O)NC(=O)CSC[C@@H](C(=O)NCCOCCOCC(=O)NCCCCCCCCCCC(=O)O)NC(=O)[C@H](C(C)O)NC(=O)[C@H](C(C)C)NC(=O)[C@H](CC3CCCCC3)NC(=O)[C@H](CCN)NC(=O)[C@@H](CC(C)C)NC(=O)[C@H](C)N(C)C(=O)[C@H](Cc3ccc(OCC(=O)O)cc3)NC(=O)[C@H](Cc3ccc(-c4ccccc4)cc3)NC(=O)[C@H](CCCCC(N)=O)NC2=O)c1 (stereo partly drawn) [Example 2345] ({CH2CO}-[Thr(3ξ)]Y(Carboxymethyl)D[Phe(3-Me)][hhGln][Bip]Y(Carboxymethyl)[NMeA][dL][Dab][Cha]V[Thr(3ξ)]C[AEEA][Aun]-OH; thioether N-14),67.5
2,Cc1cccc(C[C@@H]2NC(=O)[C@H](CC(=O)O)NC(=O)[C@H](Cc3ccc(OCC(=O)O)cc3)NC(=O)[C@H](CCCNC(=N)N)NC(=O)CSC[C@@H](C(=O)N(C)[C@@H](CC(N)=O)C(=O)NCCCCCCCCCCC(=O)O)NC(=O)[C@H](C(C)O)NC(=O)[C@H](C(C)C)NC(=O)[C@H](CC3CCCCC3)NC(=O)[C@H](CCN)NC(=O)[C@@H](CC(C)C)NC(=O)[C@H](C)N(C)C(=O)[C@H](C(C)C)NC(=O)[C@H](Cc3ccc(-c4ccccc4)cc3)NC(=O)[C@H](C(C)C)NC2=O)c1 (stereo partly drawn) [Example 2381] ({CH2CO}-RY(Carboxymethyl)D[Phe(3-Me)]V[Bip]V[NMeA][dL][Dab][Cha]V[Thr(3ξ)]C[NMeN][Aun]-OH; thioether N-14),33.8
3,Cc1cccc(C[C@@H]2NC(=O)[C@H](CC(=O)O)NC(=O)[C@H](Cc3ccc(OCC(=O)O)cc3)NC(=O)[C@H](CCCNC(=N)N)NC(=O)CSC[C@@H](C(=O)N(C)CCOCCOCC(=O)NCCCCCCCCCCC(=O)O)NC(=O)[C@H](C(C)C)NC(=O)[C@H](C(C)C)NC(=O)[C@H](CC3CCCCC3)NC(=O)[C@H](CCN)NC(=O)[C@@H](CC(C)C)NC(=O)[C@H](C)N(C)C(=O)[C@H](CCCNC(N)=O)NC(=O)[C@H](Cc3ccc(-c4ccccc4)cc3)NC(=O)[C@H](C(C)C)NC2=O)c1 [Example 2356] ({CH2CO}-RY(Carboxymethyl)D[Phe(3-Me)]V[Bip][Cit][NMeA][dL][Dab][Cha]VVC[NMeAEEA][Aun]-OH; thioether N-14),34.7
4,Cc1cccc(C[C@@H]2NC(=O)[C@H](CC(=O)O)NC(=O)[C@H](Cc3ccc(C(=O)O)cc3)NC(=O)[C@H](Cc3ccc(OCC(=O)O)cc3)NC(=O)CSC[C@@H](C(=O)NCCCCCCCCCCC(=O)O)NC(=O)[C@H](C(C)O)NC(=O)[C@H](C(C)C)NC(=O)[C@H](CC3CCCCC3)NC(=O)[C@H](CCN)NC(=O)[C@@H](CC(C)C)NC(=O)[C@H](C)N(C)C(=O)[C@H](Cc3ccc(O)cc3)NC(=O)[C@H](Cc3ccc(-c4ccccc4)cc3)NC(=O)[C@H](CC(C)C)NC2=O)c1 (stereo partly drawn) [Example 2329] ({CH2CO}-Y(Carboxymethyl)[Phe(4-COOH)]D[Phe(3-Me)]L[Bip]Y[NMeA][dL][Dab][Cha]V[Thr(3ξ)]C[Aun]-OH; thioether N-14),195
5,CC(C)C[C@H]1NC(=O)[C@H](C)N(C)C(=O)[C@H](C(C)C)NC(=O)[C@H](Cc2ccc(-c3ccccc3)cc2)NC(=O)[C@H](C(C)C)NC(=O)[C@H](Cc2c[nH]c3ccccc23)NC(=O)[C@H](CC(=O)O)NC(=O)[C@H](Cc2ccncc2)NC(=O)[C@H](Cc2ccc(OCC(=O)O)cc2)NC(=O)CSC[C@@H](C(=O)N[C@@H](CCN)C(=O)NCCOCCOCC(=O)NCCCCCCCCCCCC(=O)O)NC(=O)[C@H](CO)NC(=O)[C@H](C(C)C)NC(=O)[C@H](CC2CCCCC2)NC(=O)[C@H](CCN)NC1=O [Example 2117] ({CH2CO}-Y(Carboxymethyl)[4Pal]DWV[Bip]V[NMeA][dL][Dab][Cha]VSC[Dab][AEEA][12Ado]-OH; thioether N-14),30.3

# Other lines, results leading:
row,IC50 [nM],SMILES
1,8.5,CC(C)C[C@@H]1NC(=O)[C@H](Cc2c[nH]c3ccccc23)NC(=O)[C@H](CC(=O)O)NC(=O)[C@H](Cc2ccc(C(=O)O)cc2)NC(=O)[C@H](Cc2ccc(OCC(=O)O)cc2)NC(=O)CSC[C@@H](C(=O)N[C@@H](CCCN)C(=O)NCCOCCOCC(=O)NCCCCCCCCCCC(=O)O)NC(=O)[C@H](CCCCN)NC(=O)[C@H](C(C)C)NC(=O)[C@H](CC2CCCCC2)NC(=O)[C@H](CCN)NC(=O)[C@@H](CC(C)C)NC(=O)[C@H](C)N(C)C(=O)[C@H](C(C)C)NC(=O)[C@H](Cc2ccc(-c3ccccc3)cc2)NC1=O [Example 2151] ({CH2CO}-Y(Carboxymethyl)[Phe(4-COOH)]DWL[Bip]V[NMeA][dL][Dab][Cha]VKC[Orn][AEEA][Aun]-OH; thioether N-14)
2,28.5,Cc1cccc(C[C@@H]2NC(=O)[C@H](CC(=O)O)NC(=O)[C@H](Cc3ccc(OCC(=O)O)cc3)NC(=O)[C@H](CCCNC(=N)N)NC(=O)CSC[C@@H](C(=O)N(C)CC(=O)NCCCCCCCCCCC(=O)O)NC(=O)[C@H](CCCNC(N)=O)NC(=O)[C@H](C(C)C)NC(=O)[C@H](CC3CCCCC3)NC(=O)[C@H](CCN)NC(=O)[C@@H](CC(C)C)NC(=O)[C@H](C)N(C)C(=O)[C@H](C(C)C)NC(=O)[C@H](Cc3ccc(-c4ccccc4)cc3)NC(=O)[C@H](C(C)C)NC2=O)c1 [Example 2260] ({CH2CO}-RY(Carboxymethyl)D[Phe(3-Me)]V[Bip]V[NMeA][dL][Dab][Cha]V[Cit]C[Sar][Aun]-OH; thioether N-14)
3,9,CC(C)C[C@@H]1NC(=O)[C@H](Cc2c[nH]c3ccccc23)NC(=O)[C@H](CC(=O)O)NC(=O)[C@H](Cc2ccncc2)NC(=O)[C@H](Cc2ccc(OCC(=O)O)cc2)NC(=O)CSC[C@@H](C(=O)NCCOCCOCC(=O)N[C@@H](CCCN)C(=O)NCCCCCCCCCCC(=O)O)NC(=O)[C@H](CCCNC(N)=O)NC(=O)[C@H](C(C)C)NC(=O)[C@H](CC2CCCCC2)NC(=O)[C@H](CCN)NC(=O)[C@@H](CC(C)C)NC(=O)[C@H](C)N(C)C(=O)[C@H](C(C)C)NC(=O)[C@H](Cc2ccc(-c3ccccc3)cc2)NC1=O [Example 2168] ({CH2CO}-Y(Carboxymethyl)[4Pal]DWL[Bip]V[NMeA][dL][Dab][Cha]V[Cit]C[AEEA][Orn][Aun]-OH; thioether N-14)
4,9.3,CC(C)C[C@@H]1NC(=O)[C@H](Cc2c[nH]c3ccccc23)NC(=O)[C@H](CC(=O)O)NC(=O)[C@H](Cc2ccc(C(=O)O)cc2)NC(=O)[C@H](Cc2ccc(OCC(=O)O)cc2)NC(=O)CSC[C@@H](C(=O)N[C@@H](CCN)C(=O)NCCOCCOCC(=O)NCCCCCCCCCCC(=O)O)NC(=O)[C@H](CCC(=O)O)NC(=O)[C@H](C(C)(C)O)NC(=O)[C@H](CC2CCCCC2)NC(=O)[C@H](CCN)NC(=O)[C@@H](CC(C)C)NC(=O)[C@H](C)N(C)C(=O)[C@H](C(C)C)NC(=O)[C@H](Cc2ccc(-c3ccccc3)cc2)NC1=O [Example 1123] ({CH2CO}-Y(Carboxymethyl)[Phe(4-COOH)]DWL[Bip]V[NMeA][dL][Dab][Cha][Val(3-OH)]EC[Dab][AEEA][Aun]-OH; thioether N-14)
5,16.9,CC[C@@H](C)[C@@H]1NC(=O)[C@H](Cc2ccc(-c3ccccc3)cc2)NC(=O)[C@H](CC(C)C)NC(=O)[C@H](Cc2c[nH]c3ccccc23)NC(=O)[C@H](CC(=O)O)NC(=O)[C@H](Cc2ccc(C(=O)O)cc2)NC(=O)[C@H](Cc2ccc(OCC(=O)O)cc2)NC(=O)CSC[C@@H](C(=O)NCCOCCOCC(=O)N[C@H](CCCN)C(=O)NCCCCCCCCCCC(=O)O)NC(=O)[C@H](CO)NC(=O)[C@H](C(C)C)NC(=O)[C@H](CC2CCCCC2)NC(=O)[C@H](CCN)NC(=O)[C@@H](CC(C)C)NC(=O)[C@H](C)N(C)C1=O [Example 2034] ({CH2CO}-Y(Carboxymethyl)[Phe(4-COOH)]DWL[Bip][aIle][NMeA][dL][Dab][Cha]VSC[AEEA][dOrn][Aun]-OH; thioether N-14)
6,12.5,Cc1cccc(C[C@@H]2NC(=O)[C@H](CC(=O)O)NC(=O)[C@H](Cc3ccc(OCC(=O)O)cc3)NC(=O)[C@H](Cc3ccc(OCC(=O)O)cc3)NC(=O)CSC[C@@H](C(=O)N[C@@H](CCN)C(=O)NCCCCCCCCCCC(=O)O)NC(=O)[C@H](CCCN)NC(=O)[C@H](C(C)C)NC(=O)[C@H](CC3CCCCC3)NC(=O)[C@H](CCN)NC(=O)[C@@H](CC(C)C)NC(=O)[C@H](C)N(C)C(=O)[C@H](Cc3ccc(O)cc3)NC(=O)[C@H](Cc3ccc(-c4ccccc4)cc3)NC(=O)[C@H](C(C)C)NC2=O)c1 [Example 1254] ({CH2CO}-Y(Carboxymethyl)Y(Carboxymethyl)D[Phe(3-Me)]V[Bip]Y[NMeA][dL][Dab][Cha]V[Orn]C[Dab][Aun]-OH; thioether N-14)

# Same assay, conditions: PE-labeled PD-L1-Ig 20 nM final, Jurkat-hPD-1 cells; read-out: Jurkat HPD1 PDL1 IC50
row,IC50 [nM],SMILES
1,31.1,CC(C)C[C@H]1NC(=O)[C@H](C)N(C)C(=O)[C@H](CCC(N)=O)NC(=O)[C@H](Cc2ccc(-c3ccccc3)cc2)NC(=O)[C@H](C(C)C)NC(=O)[C@H](Cc2c[nH]c3ccccc23)NC(=O)[C@H](CC(=O)O)NC(=O)[C@H](Cc2ccc(OCC(=O)O)cc2)NC(=O)[C@H](Cc2ccncc2)NC(=O)CSC[C@@H](C(=O)N[C@@H](CCN)C(=O)NCCOCCOCC(=O)NCCCCCCCCCCC(=O)O)NC(=O)[C@H](CCC(=O)O)NC(=O)[C@H](C(C)C)NC(=O)[C@H](CC2CCCCC2)NC(=O)[C@H](CCN)NC1=O [Example 2492] ({CH2CO}-[4Pal]Y(Carboxymethyl)DWV[Bip]Q[NMeA][dL][Dab][Cha]VEC[Dab][AEEA][Aun]-OH; thioether N-14)
2,2.5,CC(C)C[C@H]1NC(=O)[C@H](C)N(C)C(=O)[C@H](Cc2ccc(C(=O)O)cc2)NC(=O)[C@H](Cc2ccc(-c3ccccc3)cc2)NC(=O)[C@H](Cc2ccc(C(=O)O)cc2)NC(=O)[C@H](Cc2cccc(C(F)(F)F)c2)NC(=O)[C@H](CC(=O)O)NC(=O)[C@H](Cc2ccc(C(=O)O)cc2)NC(=O)[C@H](Cc2ccc(OCC(=O)O)cc2)NC(=O)CSC[C@@H](C(=O)N[C@@H](CCN)C(=O)NCCCCCCCCCCC(=O)O)NC(=O)[C@H](CO)NC(=O)[C@H](C(C)(C)O)NC(=O)[C@H](CC2CCCCC2)NC(=O)[C@H](CCN)NC1=O [Example 2585] ({CH2CO}-Y(Carboxymethyl)[Phe(4-COOH)]D[Phe(3-CF3)][Phe(4-COOH)][Bip][Phe(4-COOH)][NMeA][dL][Dab][Cha][Val(3-OH)]SC[Dab][Aun]-OH; thioether N-14)
